The subject of assay [1] is Pseudomonas aeruginosa ATCC 27853. The assay is described as follows: microbe, parasite or virus in culture. It counts as cell-based. As to conditions: Pseudomonas aeruginosa, ATCC27853. Here is the method: (§1) Testing was performed according to CLSI (Clinical Laboratory Standards Institute) guidelines. Read out of the study was determination of MIC—minimal inhibitory concentration expressed in μg/mL.
(§2) Out of these PBS solutions, 76.8 μL was transferred to 1423.2 μL of MH media in deep well for testing compound alone. […] Out of these working solutions 100 μL were transferred to wells in the third column of 96-well assay plates. Assay plates were previously filled with 50 μL of MH media in all wells except for the wells in the third column.
(§3) Microorganisms used were all revived from skim milk storage at −70° C. by plating them on MH agar plates. The following day a single colony of each microorganism was again streaked on fresh agar plates. The next day, using direct colony suspension method, broth solutions that achieve turbidity equivalent to 0.5 McFarland standard for each microorganism were prepared. […] Out of these suspensions, actual inoculums were prepared by diluting them 100× with MH media giving final microorganism count of 2-8×10^5 CFU/mL. For each strain of microorganisms, 20 mL of these inoculum solutions were prepared. From the second to the twelfth column of 96-well plates, 50 μL of these solutions were transferred per well. To the first column, 50 μL per well of pure growth media was added. In this manner the first column was used as sterility control of media used, the second column was used as control of microorganism's growth and the rest of the plate was used for MIC determination. All plates were incubated for 16-24 h at 37° C.
(§4) MIC value was determined by visual inspection of bacterial growth within 96-well plates. The first column in which there was no visible growth of bacteria was determined as MIC value for peptide or combination tested in that particular row.

The test system of assay [2] is Klebsiella pneumoniae ATCC 700603. Put plainly: microbe, parasite or virus in culture. As to conditions: Klebsiella pneumoniae, ATCC700603. The class given is cell-based. Here is the method:
as §1, §2, §3, §4

For assay [3], the system named is Escherichia coli ATCC 25922. Put plainly: microbe, parasite or virus in culture. It counts as cell-based. The note with it: Escherichia coli, ATCC25922. How it is done:
as §1, §2, §3, §4

Assay [4] concerns Acinetobacter baumannii ATCC 17978. The assay is described as follows: microbe, parasite or virus in culture. It counts as cell-based. The note with it: Acinetobacter baumannii, ATCC17978. How it is done: as §1, §2, §3, §4
In another assay the test system is P. aeruginosa LMG 6395. It counts as cell-based, Pseudomonas aeruginosa. As to conditions: nisin + GNP. An excerpt:
The test of synergistic effect was processed by conducting standard chequerboard broth microdilution assays. Nisin (Drug X) was loaded two fold serially diluted from row 1 to 10 in X-axis while GNPs (Drug Y) were loaded in eight two fold serially diluted concentrations from line A to H in Y-axis (FIG. 1). The original concentrations of peptides were MICs of each. Row 11 are used as growth control with no peptide was included, while row 12 with MHB medium-only wells was included as a sterility control as referred before. 50 uL fresh bacterial suspension was added to well 1-11 and final volume of each well on the plate is 100 uL.
To determine whether the combination therapy is additive, synergistic or antagonistic, fractional inhibitory concentration (FIC) indices were calculated. FICI=FICa+FICb=MICac/MICa+MICbc/MICb. The MICa/MICb is the MIC of compound A/B alone. MICac is the MIC of compound A in combination with compound B and MICbc is the MIC of compound B when it was combination with compound A. […]. FICa is FIC of compound A while FICb is FIC of compound B. The FICI is interpreted as follows: synergistic, FICI≤0.5; additive, 0.5<FICI<1; indifferent, 1<FICI<2; antagonistic, FICI>2.

Each structure is given as a SMILES string.

Turning to `CN[C@H](CC(C)C)C(=O)N[C@H]1C(=O)N[C@@H](CC(N)=O)C(=O)N[C@H]2C(=O)N[C@H]3C(=O)N[C@H](C(=O)N[C@H](C(=O)O)c4cc(O)cc(O)c4-c4cc3ccc4O)[C@H](O)c3ccc(c(Cl)c3)Oc3cc2cc(c3O[C@@H]2O[C@H](CO)[C@@H](O)[C@H](O)[C@H]2O[C@H]2C[C@](C)(N)[C@H](O)[C@H](C)O2)Oc2ccc(cc2Cl)[C@H]1O` [Vancomycin, reference compound], the MIC in assay [1] was above 128 µg/mL; in assay [2] it was above 128 µg/mL; in assay [3] it was above 128 µg/mL; in assay [4] it was 128 µg/mL.

In the case of `CC[C@@H](C)[C@@H](NC(=O)[C@@H](CCCNC(=N)N)NC(=O)[C@@H](CCCNC(=N)N)NC(=O)[C@@H](Cc1ccccc1)NC(=O)[C@@H](CC(C)C)NC(=O)[C@@H](CCCNC(=N)N)NC(=O)[C@H](N)CCCNC(=N)N)C(=O)N[C@H](CC(C)C)C(=O)N[C@H](CCCNC(=N)N)C(=O)N[C@H](Cc1c[nH]c2ccccc12)C(=O)N[C@H](CC(C)C)C(N)=O` [GNP-D6], in the assay with P. aeruginosa LMG 6395, the FICI was found to be 0.25.

The record behind these values is patent US20200368315A1, “ANTIMICROBIAL PEPTIDES AND ADMIXTURES THEREOF SHOWING ANTIMICROBIAL ACTIVITY AGAINST GRAM-NEGATIVE PATHOGENS” (priority 2017, published 2020).
